Drawing on US20130252890A1, “6,7-DIHYDRO-5H-BENZO[7]ANNULENE DERIVATIVES, PROCESS FOR PREPARATION THEREOF, PHARMACEUTICAL PREPARATIONS COMPRISING THEM, AND THE USE THEREOF FOR PRODUCTION OF MEDICAMENTS” (BAYER INTELLECTUAL PROPERTY GMBH, priority 2010, published 2013), this text covers IC50 and inhibition in vivo for 21 molecules.

One assay concerns the target T1, oestrogen receptor (ER) (Homo sapiens, UniProt P03372).
T1 construct: These MVLN cells express, along with the functional oestrogen receptor (ER), a reporter construct; endogenous in cells; host or cells: MVLN cells (MCF7 derivative carrying a luciferase reporter construct)
T1 sequence (P03372 1-595): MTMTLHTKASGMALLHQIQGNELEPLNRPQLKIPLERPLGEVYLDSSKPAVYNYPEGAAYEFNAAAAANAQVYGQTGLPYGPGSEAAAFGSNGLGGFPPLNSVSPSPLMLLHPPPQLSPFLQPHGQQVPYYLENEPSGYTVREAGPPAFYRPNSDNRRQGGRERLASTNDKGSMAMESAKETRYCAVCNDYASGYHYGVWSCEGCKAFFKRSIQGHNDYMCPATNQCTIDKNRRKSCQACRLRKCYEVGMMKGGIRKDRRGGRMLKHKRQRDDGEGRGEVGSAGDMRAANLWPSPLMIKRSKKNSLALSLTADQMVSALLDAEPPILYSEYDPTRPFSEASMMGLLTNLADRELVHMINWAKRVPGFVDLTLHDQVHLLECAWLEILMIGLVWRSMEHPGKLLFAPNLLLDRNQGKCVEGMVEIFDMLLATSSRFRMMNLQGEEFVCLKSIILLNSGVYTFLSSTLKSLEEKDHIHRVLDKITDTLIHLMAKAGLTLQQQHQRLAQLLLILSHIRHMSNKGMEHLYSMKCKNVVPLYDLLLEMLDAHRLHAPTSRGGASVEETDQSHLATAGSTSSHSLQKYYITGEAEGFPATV
Kind of assay: Anti-oestrogenic action in MVLN cells (inhibition of estradiol-induced luciferase). In kind it is cell-based. The note with it: inhibition of estradiol-induced luciferase signal, value of Ex. 44 is a mean value, read-out: Antioestrogenic action in vitro: MVLN transactivation antagonism IC50. An outline of the steps: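 Inhibition of estradiol-driven luciferase expression was measured with compounds co-applied alongside oestrogen. Reporter system: MCF7-derived MVLN cells expressing endogenous functional ER and an ER-responsive luciferase construct.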

A further assay has as its system uterus. Kind of assay: Anti-uterus growth test in the adult rat. The note with it: sc, 72 h; ovariectomized adult rat, s.c. 3 days with 1.5 μg/kg/day 17β-estradiol; inhibition of uterus growth; value of 44 is a mean of two measurements; read-out: anti-oestrogenic activity in vivo in % at a dose of 0.3 mg/kg (rat). The text has this:
The uterus of oestrogen-substituted rats can be used as a test model for detecting a direct action of substances with anti-oestrogenic properties. The parameter of oestrogenic action is estradiol-induced uterus growth in rats, which is inhibited by simultaneous administration of a substance with anti-oestrogenic action. The experimental animals (n=5-6 animals/group) were ovariectomized before the start of the test, to rule out the influence of endogenous oestrogens. After a phase of 6 to 10 days, the test substances are administered s.c. on 3 consecutive days (d1-d3) in combination with a substitution dose of 1.5 μg/kg/day 17β-estradiol. 17β-estradiol alone serves as positive control, and the excipients serve as negative control. On day 4 (d4) the animals are killed, and the uteri and vaginae are removed and weighed. The organ weights are converted to mg/100 g body weight, then the mean value and the standard deviation are calculated for each dosage. The inhibition of uterus growth induced by 17β-estradiol is shown as percentage inhibition.

As usually defined, the IC50 is the concentration that inhibits the measured activity by half.

For `CN(CCCCCCC1=C(c2cc(F)cc(F)c2)CCCc2cc(O)ccc21)CCCS(=O)(=O)CCCC(F)(F)F` [Example 7, 8-(3,5-Difluorophenyl)-9-[6-(methyl{3-[(4,4,4-trifluorobutyl)sulphonyl]propyl}amino)hexyl]-6,7-dihydro-5H-benzo[7]annulen-3-ol], the IC50 on oestrogen receptor (ER) stood at 24 nM. In the assay on uterus, the inhibition in vivo at 0.3 mg/kg was 23%.

For the molecule `CN(CCCCCCC1=C(c2ccc(F)c(F)c2)CCCc2cc(O)ccc21)CCCS(=O)(=O)CCCC(F)(F)F` [Example 23, 8-(3,4-Difluorophenyl)-9-[6-(methyl{3-[(4,4,4-trifluorobutyl)sulphonyl]propyl}amino)hexyl]-6,7-dihydro-5H-benzo[7]annulen-3-ol], the IC50 on oestrogen receptor (ER) turned out to be 22 nM. In the assay on uterus, the inhibition in vivo at 0.3 mg/kg came out at 33%.

As for `CC(C)(O)CN(CCCCCCC1=C(c2ccc(F)c(F)c2)CCCc2cc(O)ccc21)CCCS(=O)(=O)CCC(F)(F)F` [Example 27, 8-(3,4-Difluorophenyl)-9-{6-[(2-hydroxy-2-methylpropyl){3-[(3,3,3-trifluoropropyl)sulphonyl]propyl}amino]hexyl}-6,7-dihydro-5H-benzo[7]annulen-3-ol], at oestrogen receptor (ER), the IC50 is 35 nM. For the same molecule, the inhibition in vivo at 0.3 mg/kg in the assay with uterus was 10%.

In the case of `CN(CCCCCCC1=C(c2ccc(F)c(F)c2)CCCc2cc(O)ccc21)CCCCS(=O)(=O)CCCC(F)(F)F` [Example 45, 8-(3,4-Difluorophenyl)-9-[6-(methyl{4-[(4,4,4-trifluorobutyl)sulphonyl]butyl}amino)hexyl]-6,7-dihydro-5H-benzo[7]annulen-3-ol], the IC50 on oestrogen receptor (ER) was determined as 20 nM. In addition, the inhibition in vivo at 0.3 mg/kg in the assay with uterus was 73%.

Turning to `CN(CCCCCCC1=C(c2cc(F)cc(F)c2)CCCc2cc(O)ccc21)CCCCS(=O)(=O)CCC(F)(F)F` [Example 46, 8-(3,5-Difluorophenyl)-9-[6-(methyl{4-[(3,3,3-trifluoropropyl)sulphonyl]butyl}amino)hexyl]-6,7-dihydro-5H-benzo[7]annulen-3-ol], the IC50 at oestrogen receptor (ER) was found to be 36 nM. Moreover, the inhibition in vivo at 0.3 mg/kg in the assay with uterus was found to be 30%.

For `CN(CCCCCCC1=C(c2ccc(F)cc2)CCCc2cc(O)ccc21)CCCCS(=O)(=O)CCCC(F)(F)F` [Example 48, 8-(4-Fluorophenyl)-9-[6-(methyl{4-[(4,4,4-trifluorobutyl)sulphonyl]butyl}amino)hexyl]-6,7-dihydro-5H-benzo[7]annulen-3-ol], the half-maximal inhibitory concentration (IC50) on oestrogen receptor (ER) was 17 nM. For the same molecule, the inhibition in vivo at 0.3 mg/kg in the assay on uterus was found to be 79%.

In the case of `CN(CCCCCCC1=C(c2ccc(F)cc2)CCCc2cc(O)ccc21)CCCS(=O)(=O)CCC(F)(F)C(F)(F)F` [Example 116, 8-(4-fluorophenyl)-9-[6-(methyl{3-[(3,3,4,4,4-pentafluorobutyl)sulphonyl]propyl}amino)hexyl]-6,7-dihydro-5H-benzo[7]annulen-3-ol], on oestrogen receptor (ER), the IC50 turned out to be 34 nM. Moreover, the inhibition in vivo at 0.3 mg/kg in the assay on uterus was determined as 15%.

As for `CN(CCCCCCC1=C(c2cccc(F)c2)CCCc2cc(O)ccc21)CCCS(=O)(=O)CCCC(F)(F)C(F)(F)F` [Example 125, 8-(3-fluorophenyl)-9-[6-(methyl{3-[(4,4,5,5,5-pentafluoropentyl)sulphonyl]propyl}amino)hexyl]-6,7-dihydro-5H-benzo[7]annulen-3-ol], the IC50 on oestrogen receptor (ER) worked out at 13 nM. Moreover, the inhibition in vivo at 0.3 mg/kg in the assay with uterus turned out to be 75%.

On to `[2H]C([2H])([2H])N(CCCCCCC1=C(c2ccc(F)cc2F)CCCc2cc(O)ccc21)CCCS(=O)(=O)CCCCC(F)(F)F` [Example 136, 8-(2,4-Difluorophenyl)-9-{6-[(^2H3)methyl{3-[(5,5,5-trifluoropentyl)sulphonyl]propyl}amino]hexyl}-6,7-dihydro-5H-benzo[7]annulen-3-ol], for which the IC50 on oestrogen receptor (ER) came out at 9 nM.

As to `[2H]C([2H])([2H])N(CCCCCCC1=C(c2cc(F)ccc2F)CCCc2cc(O)ccc21)CCCS(=O)(=O)CCCCC(F)(F)F` [Example 137, 8-(2,5-Difluorophenyl)-9-{6-[(^2H3)methyl{3-[(5,5,5-trifluoropentyl)sulphonyl]propyl}amino]hexyl}-6,7-dihydro-5H-benzo[7]annulen-3-ol], the IC50 on oestrogen receptor (ER) came out at 6 nM.

With `O=S(=O)(CCCCN(CCO)CCCCCCC1=C(c2ccc(F)cc2)CCCc2cc(O)c(F)cc21)CCC(F)(C(F)(F)F)C(F)(F)F` [Example 138, 2-Fluoro-8-(4-fluorophenyl)-9-{6-[(2-hydroxyethyl)(4-{[3,4,4,4-tetrafluoro-3-(trifluoromethyl)butyl]sulphonyl}butyl)amino]hexyl}-6,7-dihydro-5H-benzo[7]annulen-3-ol], the IC50 on oestrogen receptor (ER) amounted to 21 nM.

`[2H]C([2H])([2H])N(CCCCCCC1=C(c2ccc(F)cc2)CCCc2cc(O)ccc21)CCCS(=O)(=O)CCCCC(F)(F)F` [Example 139, 8-(4-Fluorophenyl)-9-{6-[(^2H3)methyl{3-[(5,5,5-trifluoropentyl)sulphonyl]propyl}amino]hexyl}-6,7-dihydro-5H-benzo[7]annulen-3-ol]: the IC50 on oestrogen receptor (ER) came to 7 nM.

As for `CN(CCCCCCC1=C(c2ccc(F)cc2)CCCc2cc(O)c(F)cc21)CCCS(=O)(=O)CCCCCC(F)(F)F` [Example 140, 2-Fluoro-8-(4-fluorophenyl)-9-[6-(methyl{3-[(6,6,6-trifluorohexyl)sulphonyl]propyl}amino)hexyl]-6,7-dihydro-5H-benzo[7]annulen-3-ol], the IC50 at oestrogen receptor (ER) was found to be 4 nM.

For the molecule `N#CCN(CCCCCCC1=C(c2ccc(F)cc2)CCCc2cc(O)ccc21)CCCS(=O)(=O)CCCCC(F)(F)F` [Example 141, ({6-[8-(4-Fluorophenyl)-3-hydroxy-6,7-dihydro-5H-benzo[7]annulen-9-yl]hexyl}{3-[(5,5,5-trifluoropentyl)sulphonyl]propyl}amino)acetonitrile], at oestrogen receptor (ER), the half-maximal inhibitory concentration (IC50) is 21 nM.

Turning to `CN(CCCCCCC1=C(c2cc(F)ccc2F)CCCc2cc(O)ccc21)CCCCS(=O)(=O)CCCC(F)(F)F` [Example 143, 8-(2,5-Difluorophenyl)-9-[6-(methyl{4-[(4,4,4-trifluorobutyl)sulphonyl]butyl}amino)hexyl]-6,7-dihydro-5H-benzo[7]annulen-3-ol], at oestrogen receptor (ER), the IC50 stood at 9 nM.

Consider `CN(CCCCCCC1=C(c2ccc(F)cc2)CCCc2cc(O)c(F)cc21)CCCCS(=O)(=O)C1CCC(F)(F)CC1` [Example 144, 9-{6-[{4-[(4,4-Difluorocyclohexyl)sulphonyl]butyl}(methyl)amino]hexyl}-2-fluoro-8-(4-fluorophenyl)-6,7-dihydro-5H-benzo[7]annulen-3-ol], for which the IC50 on oestrogen receptor (ER) was determined as 10 nM.

Regarding `CN(CCCCCCC1=C(c2ccc(F)cc2F)CCCc2cc(O)ccc21)CCCS(=O)(=O)CCC(F)(F)C(F)(F)F` [Example 145, 8-(2,4-Difluorophenyl)-9-[6-(methyl{3-[(3,3,4,4,4-pentafluorobutyl)sulphonyl]propyl}amino)hexyl]-6,7-dihydro-5H-benzo[7]annulen-3-ol], the IC50 on oestrogen receptor (ER) was determined as 22 nM.

In the case of `CN(CCCCCCC1=C(c2ccc(F)cc2F)CCCc2cc(O)ccc21)CCCCS(=O)(=O)CCC(F)(F)C(F)(F)F` [Example 146, 8-(2,4-Difluorophenyl)-9-[6-(methyl{4-[(3,3,4,4,4-pentafluorobutyl)sulphonyl]-butyl}amino)hexyl]-6,7-dihydro-5H-benzo[7]annulen-3-ol], the IC50 at oestrogen receptor (ER) was found to be 15 nM.

For `CN(CCCCCCC1=C(c2ccc(F)cc2F)CCCc2cc(O)ccc21)CCCCS(=O)(=O)CCCC(F)(F)C(F)(F)F` [Example 147, 8-(2,4-Difluorophenyl)-9-[6-(methyl{4-[(4,4,5,5,5-pentafluoropentyl)sulphonyl]butyl}amino)hexyl]-6,7-dihydro-5H-benzo[7]annulen-3-ol], the IC50 on oestrogen receptor (ER) was determined as 32 nM.

With `CN(CCCCCCC1=C(c2ccc(F)cc2)CCCc2cc(O)ccc21)CCCS(=O)(=O)CCCCCC(F)(F)F` [Example 148, 8-(4-Fluorophenyl)-9-[6-(methyl{3-[(6,6,6-trifluorohexyl)sulphonyl]propyl}amino)hexyl]-6,7-dihydro-5H-benzo[7]annulen-3-ol], the IC50 on oestrogen receptor (ER) was 17 nM.

For the molecule `CN(CCCCCCC1=C(c2ccc(F)cc2)CCCc2c1ccc(O)c2F)CCCS(=O)(=O)CCCC(F)(F)F` [Example 149, 4-Fluoro-8-(4-fluorophenyl)-9-[6-(methyl{3-[(4,4,4-trifluorobutyl)sulphonyl]propyl}amino)hexyl]-6,7-dihydro-5H-benzo[7]annulen-3-ol], the IC50 at oestrogen receptor (ER) was 14 nM.
